Reference: patent US20160296646A1, “ALKYLPHOSPHOCHOLINE ANALOGS FOR MULTIPLE MYELOMA IMAGING AND THERAPY” (Wisconsin Alumni Research Foundation, priority 2015, published 2016)

Key:
[1] = system: CD14+ monocyte/macrophage cells from normal human blood; test: Uptake in CD14+ monocyte/macrophage cells among normal PBMCs; assay type: cell-based
Method: (§1) Uptake of CLR1501 and 1502 was assessed using peripheral blood mononuclear cells (PBMCs) isolated from normal human blood.

[2] = system: CD138+ multiple myeloma tumor cells; test: Uptake in CD138+ tumor cells isolated from patient bone marrow aspirate; assay type: cell-based, human
Text: (§2) Bone marrow aspirate samples were taken from fifteen different patients diagnosed with multiple myeloma.
(§3) Uptake of both CLR1501 and CLR1502 was quantified by measuring fluorescence intensity for CD138^+ multiple myeloma tumor cells, CD14^+ monocyte/macrophage cells, and CD138^−/CD14^− cells isolated from bone marrow aspitrates from multiple myeloma patients.

[3] = system: MM.1R multiple myeloma cell line; test: Uptake of fluorescent analogs in MM.1R cells (optical imaging); assay type: cell-based; conditions: fluorescence imaging
Text: (§4) FIG. 4 includes optical images showing uptake of CLR1501 in three different multiple myeloma cell lines (top row, MM.1S; middle row, MM.1R; bottom row, RPM18226). […] 20× magnification.
(§5) FIG. 6 includes optical images showing uptake of CLR1502 in three different multiple myeloma cell lines (top row, MM1S; middle row, MM.1R; bottom row, RPM18226). […] 20× magnification.

[4] = system: peripheral blood mononuclear cells (PBMCs) isolated from normal human blood; test: Uptake in normal peripheral blood mononuclear cells; assay type: cell-based; conditions: compared to MM1.S cells
Method: FIG. 8 includes optical images showing uptake of CLR1502 in cells co-incubated with Hoechst 33452 (blue nuclear) stain. […] 20× magnification.
as §1

[5] = system: CD138-/CD14- cells (other mononuclear cells); test: Uptake in CD138-/CD14- cells isolated from patient bone marrow aspirate; assay type: cell-based, human
Text: as §2, §3

[6] = system: RPM18226 multiple myeloma cell line; test: Uptake of fluorescent analogs in RPM18226 cells (optical imaging); assay type: cell-based; conditions: fluorescence imaging
Text: as §4, §5

[7] = system: NCIH929 multiple myeloma cell line; test: Uptake of fluorescent analogs in NCIH929 cells (optical imaging); assay type: cell-based; conditions: fluorescence imaging
Text: (§6) FIG. 5 includes optical images showing uptake of CLR1501 in two additional multiple myeloma cell lines (top row, U266; bottom row, H929). […] 20× magnification.
(§7) FIG. 7 includes optical images showing uptake of CLR1502 in two additional multiple myeloma cell lines (top row, U266; bottom row, H929). […] 20× magnification.

[8] = system: U266 multiple myeloma cell line; test: Uptake of fluorescent analogs in U266 cells (optical imaging); assay type: cell-based; conditions: fluorescence imaging
Text: as §6, §7

[9] = system: CD14+ monocyte/macrophage cells; test: Uptake in CD14+ monocyte/macrophage cells isolated from patient bone marrow aspirate; assay type: cell-based, human
Text: as §2, §3

[10] = system: MM.1S multiple myeloma cell line; test: Uptake of fluorescent analogs in MM.1S cells (optical imaging); assay type: cell-based; conditions: for uptake: MM.1S cells, fluorescence imaging
Text: as §4, §5

[11] = system: MM.1s multiple myeloma cells; test: Bioactivity of [131I]-CLR1404: live fraction of MM.1s cells after exposure; assay type: cell-based; conditions: 48 hour exposure, control 96%
Method: MM.1s multiple myeloma cells were exposed to two different concentrations of [^131I]-CLR1404 (0.082 μCi and 0.91 μCi) for a 48 hour period, as well as to a control containing no [^131I]-CLR1404. Bioactivity for each group was determined by determining the percentage of cells that remained alive after the exposure period (live fraction).

[12] = CD138+ cells from bone marrow aspirates of fifteen multiple myeloma patients
[13] = CD138- cells from the same patient samples (except CD14+ cells)
[14] = CD14+ cells from patient bone marrow aspirates

Row | SMILES | uptake [1] | uptake [2, 12] | uptake ([2]; patient A, CD138+ cells) | uptake [3] | uptake [4] | uptake [5, 13] | uptake ([5]; patient A, CD138-/CD14- cells) | uptake ([5]; patient B, CD138-/CD14- cells co-incubated with Hoechst 33452) | uptake [6] | uptake [7] | uptake [8] | uptake [9, 14] | uptake ([9]; patient A, CD14+ cells) | uptake [10] | localization of uptake within cells ([10]; MM.1S, MM.1R, RPM18226 cells co-incubated with lipid raft stain) | uptake in CD138+ tumor cells relative to CD14 monocyte/macrophage cells (fluorescence intensity) ([2]; patient G, same patient) | uptake in CD138+ tumor cells relative to CD138-/CD14- cells (fluorescence intensity) ([2]; patient G, same patient) | uptake ([5]; patient D, CD138-/CD14- cells) | live fraction ([11]; 0.082 μCi) [%] | live fraction ([11]; 0.91 μCi) [%]
1 | C[N+](C)(C)CCOP(=O)([O-])OCCCCCCCCCCCCCCCCCCc1ccc(C2=C3C=CC=[N+]3[B-](F)(F)n3cccc32)cc1 [CLR1501] | did exhibit uptake | high uptake | taken up | strong uptake | minimal to no uptake | very minimal to no uptake | no detectable uptake | minimal CLR1501 uptake | strong uptake | high uptake | high uptake | did take up the analogs | taken up | strong uptake | localized to the lipid rafts |  |  |  |  | 
2 | CN1C(=CC=C2CCCC(C=CC3=[N+](C)c4ccccc4C3(C)C)=C2c2ccc(CCCCCCCCCCCCCCCCCCOP(=O)(O)OCC[N+](C)(C)C)cc2)C(C)(C)c2ccccc21 [CLR1502] | did exhibit uptake | high uptake |  | high uptake | minimal to no uptake | very minimal to no uptake |  |  | high uptake | high uptake | high uptake | did take up the analogs |  | high uptake |  | threefold greater | about fifteen fold greater | minimal uptake |  | 
3 | C[N+](C)(C)CCOP(=O)([O-])OCCCCCCCCCCCCCCCCCCc1ccc([131I])cc1 [[^131I]-CLR1404] |  |  |  |  |  |  |  |  |  |  |  |  |  |  |  |  |  |  | 71 | 0
